Assay results: patent US20260217698A1 (BEYANG THERAPEUTICS CO., LTD., priority 2022, published 2026)

Key:
TIE2 = target: T1, TIE2 (Homo sapiens, UniProt Q02763); experiment: Kinase inhibition, Mobility Shift Assay/IMAP, TIE2; type: biochemical
T1 construct: purchased BPS 40270
Source text: (§1) This assay directly monitored the ability of compounds to inhibit kinase phosphorylation by measuring non-phosphorylated and phosphorylated substrates in kinase reactions by using Mobility Shift Assays/IMAP™ analysis.
(§2) Read the conversion ratio data on CaliperEZ Reader II. Convert conversion rates into inhibition ratio data.
(§3) “Min” indicates the readout of the control well without the addition of enzymes; and “Max” indicates the readout of the control well with the addition of DMSO Fit IC50 values with XL Fit excel add-in version […].
(§4) X indicates the log value of compound concentration, and Y indicates the inhibition ratio (% inhibition).

EGFR = target: T2, EGFR (Homo sapiens, UniProt P00533); experiment: Kinase inhibition, Mobility Shift Assay/IMAP, EGFR; type: biochemical
T2 construct: purchased Carna 08-115
Source text: as §1, §2, §3, §4

VEGFR2 = VEGFR2 (Homo sapiens, UniProt P35968); experiment: Kinase inhibition, Mobility Shift Assay/IMAP, VEGFR2; type: biochemical; parameters: purchased Carna 08-191
Source text: as §1, §2, §3, §4

melanin = experiment: Binding capacity of compounds to melanin; type: in vitro ADME, cuttlefish (Sepia officinalis); settings: cuttlefish (Sepia officinalis), melanin suspension (1 mg/mL); 1 mg/mL melanin in PBS pH 7.4, 2 μM compound, 2 h at 37° C.; read-out: Fu % (percentage of free drug)
Source text: Pigmented eye tissues contain melanin in intracellular melanosomes. Drugs bind to melanin to varying degrees, ranging from non-binding to extensive binding. Therefore, melanin binding is an important feature that affects drug delivery and biodistribution in the eye. The binding capacity of the compound to the melanin must be considered in the development of ophthalmic drugs.
Melanin was derived from the melanin of cuttlefish (Sepia officinalis) and was commercially available from Sigma Aldrich (St Louis, MO).
First, prepare 1 mg/mL melanin suspension with PBS (pH 7.4). As a washing step for the matrix, centrifuge the suspended particles for 5 min at 3000 rpm. Resuspend the resulting particles in a fresh PBS buffer, heat to 37° C. over continuous shaking and incubate it for 1 h. Accurately pipette 2 μL of the test stock solution (0.1 mM) into 98 μL of melanin suspension (1 mg/mL) to achieve a final incubation concentration of 2 μM. Similarly, accurately pipette 2 μL of the stock solution (0.1 mM) to 98 μL of PBS buffer (containing 0.1% BSA) as a blank control sample. Incubate the samples in a shaker (80-90 rpm) for 2 h at 37° C. Then, centrifuge the samples at room temperature. Pipette 50 μL of the supernatant and add 50 μL of precipitant (containing an internal standard). After protein precipitation of all the above samples, centrifuge the samples to collect the supernatants, dilute the supernatants with water (if necessary) and inject them for analysis. At the same time, measure the positive controls, including the high-binding compounds Sunitinib and chloroquine and the low-binding compound celecoxib. Establish an LC-MS/MS method for determining compound concentrations, and calibrate the peak area ratio of analyte/internal standard (Analyte/AIS) in the measured sample by the dilution factor to take it as an alternative concentration for the sample for data processing. The binding rate (Fb) of a compound in melanin was calculated as: […]
Ctest was the concentration of the compound in the melanin-incubated sample or the peak area ratio of the test compound to the internal standard. Ccontrol was the concentration of the compound in the blank control sample or the peak area ratio of the test compound to the internal standard. […]

T2 sequence (P00533 669-1210 limits assumed): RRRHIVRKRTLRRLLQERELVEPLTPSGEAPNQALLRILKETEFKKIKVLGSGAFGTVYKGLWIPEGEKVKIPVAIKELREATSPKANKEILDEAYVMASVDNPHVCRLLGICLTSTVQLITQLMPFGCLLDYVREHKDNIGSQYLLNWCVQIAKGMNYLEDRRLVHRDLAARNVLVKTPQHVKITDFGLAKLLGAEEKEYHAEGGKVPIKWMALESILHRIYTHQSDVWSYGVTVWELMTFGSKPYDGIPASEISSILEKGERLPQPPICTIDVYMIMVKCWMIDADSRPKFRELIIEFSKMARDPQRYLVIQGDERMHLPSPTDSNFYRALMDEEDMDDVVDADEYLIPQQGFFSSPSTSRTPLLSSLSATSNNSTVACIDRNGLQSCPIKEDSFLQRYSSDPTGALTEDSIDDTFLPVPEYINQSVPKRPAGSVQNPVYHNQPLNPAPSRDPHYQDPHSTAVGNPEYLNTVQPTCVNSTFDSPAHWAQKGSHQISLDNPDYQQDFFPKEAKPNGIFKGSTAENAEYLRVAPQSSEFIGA
T1 sequence (Q02763 23-1124): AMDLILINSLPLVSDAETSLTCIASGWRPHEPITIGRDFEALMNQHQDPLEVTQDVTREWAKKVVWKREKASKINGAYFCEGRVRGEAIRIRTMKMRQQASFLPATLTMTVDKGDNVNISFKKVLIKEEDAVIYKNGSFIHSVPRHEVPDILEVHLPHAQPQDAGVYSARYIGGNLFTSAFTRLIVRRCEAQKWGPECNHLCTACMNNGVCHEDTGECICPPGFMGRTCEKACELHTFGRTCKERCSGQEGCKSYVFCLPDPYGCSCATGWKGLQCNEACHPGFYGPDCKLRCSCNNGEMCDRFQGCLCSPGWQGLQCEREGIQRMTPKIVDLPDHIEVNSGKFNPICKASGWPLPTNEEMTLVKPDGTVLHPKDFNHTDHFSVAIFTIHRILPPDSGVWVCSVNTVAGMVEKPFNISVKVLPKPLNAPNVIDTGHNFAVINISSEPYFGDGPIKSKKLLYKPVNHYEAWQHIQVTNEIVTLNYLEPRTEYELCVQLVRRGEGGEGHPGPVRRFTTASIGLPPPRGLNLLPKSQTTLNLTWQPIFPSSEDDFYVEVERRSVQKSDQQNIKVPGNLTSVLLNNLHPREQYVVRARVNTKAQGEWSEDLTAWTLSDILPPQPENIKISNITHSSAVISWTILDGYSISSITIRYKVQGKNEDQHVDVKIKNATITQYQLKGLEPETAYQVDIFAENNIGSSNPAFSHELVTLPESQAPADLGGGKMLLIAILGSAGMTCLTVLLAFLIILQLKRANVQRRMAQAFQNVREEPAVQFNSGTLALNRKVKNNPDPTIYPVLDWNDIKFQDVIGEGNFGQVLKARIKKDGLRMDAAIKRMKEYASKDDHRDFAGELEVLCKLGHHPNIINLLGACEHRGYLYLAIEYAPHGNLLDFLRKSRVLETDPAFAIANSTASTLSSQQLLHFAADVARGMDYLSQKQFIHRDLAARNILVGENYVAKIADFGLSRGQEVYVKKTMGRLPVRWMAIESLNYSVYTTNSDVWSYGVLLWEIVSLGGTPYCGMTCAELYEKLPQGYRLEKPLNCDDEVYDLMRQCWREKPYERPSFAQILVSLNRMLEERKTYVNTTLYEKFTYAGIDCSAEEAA
VEGFR2, sequence (P35968 790-1356 limits assumed): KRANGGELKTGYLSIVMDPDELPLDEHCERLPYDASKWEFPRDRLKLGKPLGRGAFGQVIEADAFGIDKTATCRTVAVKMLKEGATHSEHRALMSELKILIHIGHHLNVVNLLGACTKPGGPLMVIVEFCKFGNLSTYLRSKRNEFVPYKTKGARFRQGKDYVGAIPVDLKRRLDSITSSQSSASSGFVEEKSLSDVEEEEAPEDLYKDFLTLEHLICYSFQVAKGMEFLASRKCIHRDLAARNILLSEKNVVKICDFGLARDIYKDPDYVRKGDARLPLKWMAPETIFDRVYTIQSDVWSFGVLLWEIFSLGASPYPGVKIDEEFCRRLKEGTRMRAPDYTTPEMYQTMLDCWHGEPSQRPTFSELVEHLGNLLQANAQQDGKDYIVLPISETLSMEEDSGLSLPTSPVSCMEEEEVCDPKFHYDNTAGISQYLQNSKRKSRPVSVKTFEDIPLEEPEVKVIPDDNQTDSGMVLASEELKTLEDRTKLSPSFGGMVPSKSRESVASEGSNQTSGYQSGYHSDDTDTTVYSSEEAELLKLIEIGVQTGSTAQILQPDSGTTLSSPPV

SMILES | IC50 (TIE2) | IC50 (EGFR) | IC50 (VEGFR2) | fraction unbound at 2 h, 2 μM (melanin)
COc1ccc(COc2nsc(NC(=O)NCCCCN3CCCC3)c2C(N)=O)cn1 [Compound T033] | 1460 nM | 54900 nM | 51.9 nM | 
NC(=O)c1c(OCc2ccc3c(c2)CCO3)nsc1NC(=O)NCCCCN1CCCC1 [Compound T044, 3-((2,3-dihydrobenzofuran-5-yl)methoxy)-5-(3-(4-(pyrrolidin-1-yl)butyl)ureido)isothiazole-4-carboxamide] | 1640 nM | 10000 nM | 128 nM | 
NC(=O)c1c(OCc2c(F)cc(Br)cc2F)nsc1Nc1cncc(OCCN2CCCC2)c1 [Compound T045, 3-((4-bromo-2,6-difluorobenzyl)oxy)-5-((5-(2-(pyrrolidin-1-yl)ethoxy)pyridin-3-yl)amino)isothiazole-4-carboxamide] | 230 nM |  | 22.1 nM | 
NC(=O)c1c(OCc2cc(Cl)c3cncn3c2)nsc1NC(=O)NCCCCN1CCCC1 [Compound T051, 3-((8-chloroimidazo[1,5-a]pyridin-6-yl)methoxy)-5-(3-(4-(pyrrolidin-1-yl)butyl)ureido)isothiazole-4-carboxamide] | 3210 nM |  |  | 
NC(=O)c1c(OCc2cccc(-n3cccn3)c2)nsc1NC(=O)NCCCCN1CCCC1 [Compound T068, 3-((3-(1H-pyrazol-1-yl)benzyl)oxy)-5-(3-(4-(pyrrolidin-1-yl)butyl)ureido)isothiazole-4-carboxamide] | 1610 nM | 4410 nM | 171 nM | 
CN1CCN(CCCNC(=O)Nc2snc(OCc3cccc(C(=O)C4CC4)c3)c2C(N)=O)CC1 [Compound T086, 3-((3-(cyclopropanecarbonyl)benzyl)oxy)-5-(3-(3-(4-methylpiperazin-1-yl)propyl)ureido)isothiazole-4-carboxamide] | 895 nM | 6830 nM |  | 
COc1ccc(F)c(COc2nsc(NC(=O)NCCC3CCN(C)CC3)c2C(N)=O)c1F [Compound T109, 3-[(2,6-difluoro-3-methoxy-phenyl)methoxy]-5-[2-(1-methyl-4-piperidyl)ethylcarbamoylamino]isothiazole-4-carboxamide] |  | 7450 nM | 13.8 nM | 0.0435
COc1cc(OC)c(F)c(COc2nsc(NC(=O)NCCCN3CCN(C)CC3)c2C(N)=O)c1F [Compound T117, 3-[(2,6-difluoro-3,5-dimethoxy-phenyl)methoxy]-5-[3-(4-methylpiperazin-1-yl)propylcarbamoylamino]isothiazole-4-carboxamide] |  | > 60000 nM | 2.54 nM | 0.0207
COc1ccc(F)c(COc2nsc(NC(=O)NCCCN3CC[C@@H](F)C3)c2C(N)=O)c1F [Compound T121, 3-[(2,6-difluoro-3-methoxy-phenyl)methoxy]-5-[3-[(3R)-3-fluoropyrrolidin-1-yl]propylcarbamoylamino]isothiazole-4-carboxamide] | 230 nM | 17200 nM | 40 nM | 
COc1cc(OC)c(F)c(COc2nsc(NC(=O)NCCCC3CCCN3C)c2C(N)=O)c1F (stereo not drawn) [Compound T138, 3-[(2,6-difluoro-3,5-dimethoxy-phenyl)methoxy]-5-[3-(1-methylpyrrolidin-2-yl)propylcarbamoylamino]isothiazole-4-carboxamide] |  | > 60000 nM | 2.6 nM | 0.0398
COc1ccc(Cl)c(COc2nsc(NC(=O)NCCCCN3CCCC3)c2C(N)=O)c1F [Compound T146] | 739 nM | 26100 nM | 10.5 nM | 
O=C(NCCCN1CC[C@H](F)C1)Nc1snc(OCc2cc(C(=O)NC3CC3)ccc2F)c1C(=O)O [Compound T155, 3-[[5-(cyclopropylcarbamoyl)-2-fluoro-phenyl]methoxy]-5-[3-[(3S)-3-fluoropyrrolidin-1-yl]propylcarbamoylamino]isothiazole-4-carboxylic acid] | > 60000 nM | > 60000 nM |  | 
N#CCCNC(=O)Nc1snc(OCc2cc(C(=O)NC3CC3)ccc2F)c1C(N)=O [Compound T162, 5-(2-cyanoethylcarbamoylamino)-3-[[5-(cyclopropylcarbamoyl)-2-fluoro-phenyl]methoxy]isothiazole-4-carboxamide] | 7360 nM |  | 3.05 nM | 
NC(=O)c1c(OCc2cc(C(=O)O)ccc2F)nsc1NC(=O)NCCCN1CC[C@H](F)C1 [Compound T171, 3-[[4-carbamyl-5-[3-[(3S)-3-fluoropyrrolidin-1-yl]propylcarbamylamino]isothiazol-3-yl]oxymethyl]-4-fluoro-benzoic acid] | 5850 nM | 29100 nM |  | 
NC(=O)c1c(OCc2cc(C(=O)NC3CC3)ccc2F)nsc1NC(=O)NCCC(=O)O [Compound T172, 3-[[4-carbamoyl-3-[[5-(cyclopropylcarbamoyl)-2-fluoro-phenyl]methoxy]isothiazol-5-yl]carbamoylamino]propanoic acid] | 3260 nM |  | 2.6 nM | 

Continued by falling IC50 (VEGFR2), values first:

IC50 (TIE2) | IC50 (EGFR) | IC50 (VEGFR2) | fraction unbound at 2 h, 2 μM (melanin) | SMILES
 | > 60000 nM | 2.1 nM | 0.0446 | COc1cc(OC)c(F)c(COc2nsc(NC(=O)NCCCCN3CCCC3)c2C(N)=O)c1F [Compound T137, 3-[(2,6-difluoro-3,5-dimethoxy-phenyl)methoxy]-5-(4-pyrrolidin-1-ylbutylcarbamoylamino)isothiazole-4-carboxamide]
 | > 60000 nM | 1.8 nM | 0.0285 | COc1cc(OC)c(F)c(COc2nsc(NC(=O)NCCCCN3CC[C@H](O)C3)c2C(N)=O)c1F [Compound T136, 3-[(2,6-difluoro-3,5-dimethoxy-phenyl)methoxy]-5-[4-[(3S)-3-hydroxypyrrolidin-1-yl]butylcarbamoylamino]isothiazole-4-carboxamide]
 | 20100 nM | 1.64 nM | 0.0172 | NC(=O)c1c(OCc2cc(C(=O)NC3CC3)ccc2F)nsc1NC(=O)NCCCN1CC[C@@H](O)C1 [Compound T106, 3-[[5-(cyclopropylcarbamoyl)-2-fluoro-phenyl]methoxy]-5-[3-[(3R)-3-hydroxypyrrolidin-1-yl]propylcarbamoylamino]isothiazole-4-carboxamide]
 | 11900 nM | 1.6 nM | 0.0316 | NC(=O)c1c(OCc2cc(C(=O)NC3CC3)ccc2F)nsc1NC(=O)NCCCN1CC[C@H](O)C1 [Compound T105, 3-[[5-(cyclopropylcarbamoyl)-2-fluoro-phenyl]methoxy]-5-[3-[(3S)-3-hydroxypyrrolidin-1-yl]propylcarbamoylamino]isothiazole-4-carboxamide]
4270 nM |  | 1.41 nM |  | NC(=O)c1c(OCc2ccc(F)c(C(=O)NC3CC3)c2)nsc1NC(=O)NCCCN1CCNCC1 [Compound T160, 3-[[3-(cyclopropylcarbamoyl)-4-fluoro-phenyl]methoxy]-5-(3-piperazin-1-ylpropylcarbamoylamino)isothiazole-4-carboxamide]
5380 nM | 9840 nM | 1.05 nM |  | NC(=O)c1c(OCc2cc(C(=O)NC3CC3)ccc2F)nsc1NC(=O)NCCCN1CCN(C2CC2)CC1 [Compound T158, 3-[[5-(cyclopropylcarbamoyl)-2-fluoro-phenyl]methoxy]-5-[3-(4-cyclopropylpiperazin-1-yl)propylcarbamoylamino]isothiazole-4-carboxamide]
 | 15500 nM | 0.44 nM | 0.0726 | CN1CCN(CCCNC(=O)Nc2snc(OCc3cc(C(=O)NC4CC4)ccc3Cl)c2C(N)=O)CC1 [Compound T140, 3-[[2-chloro-5-(cyclopropylcarbamoyl)phenyl]methoxy]-5-[3-(4-methylpiperazin-1-yl)propylcarbamoylamino]isothiazole-4-carboxamide]
366 nM | 10100 nM | 0.41 nM |  | CN1CCC(CCNC(=O)Nc2snc(OCc3cc(C(=O)NC4CC4)ccc3Cl)c2C(N)=O)CC1 [Compound T139, 3-[[2-chloro-5-(cyclopropylcarbamoyl)phenyl]methoxy]-5-[2-(1-methyl-4-piperidyl)ethylcarbamoylamino]isothiazole-4-carboxamide]
